The record followed here is patent US20240002393A1, “SUBSTITUTED BENZO[f][l ,2,4JTRIAZOL0[4,3-a][l ,4J[…] GABA A GAMMA! POSITIVE ALLOSTERIC MODULATORS” (Hoffmann-La Roche Inc., priority 2020, published 2024).

Assay [1] has as its target human GABAA α2β2γ1 receptor (Homo sapiens (Human), UniProt P47869+Q8N1C3). The assay is described as follows: Radioligand binding assay, [3H]RO7239181 competition, γ1-containing GABAA subtypes. The conditions noted are these: for Ki: HEK293F membranes, [3H]RO7239181 20-30 nM, mean of two determinations, read-out: Ki h-GABAA α2β2γ1; for γ2/γ1 Selectivity Ratio: Ki α1β3γ2 (nM)/Ki α2β2γ1 (nM); for LogSel: Log[Ki α1β3γ2 (nM)/Ki α2β2γ1 (nM)].

Assay [2] deals with human GABAA α1β2γ1 receptor (Homo sapiens (Human), UniProt P14867+Q8N1C3). The description is as above. The note with it: HEK293F membranes, [3H]RO7239181 20-30 nM, mean of two determinations.
Assay [3] has as its target h-GABA-A α2β2γ1 (Homo sapiens (Human), UniProt P47869+Q8N1C3). The assay is described as follows: Two-electrode voltage clamp electrophysiology in Xenopus oocytes expressing GABAA receptors. The assay is classed as cell-based. The conditions noted are these: for Efficacy (GABA)%: % modulation of GABA EC20 = 100*(Fold increase−1), compound at 30-fold Ki; for Fold increase h-GABA-A α2β2γ1 oocyte @ 30-fold Ki: GABA EC20, test compound at about 30-fold its Ki α2β2γ1, at least 3 oocytes. In short, it runs like this: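 Oocytes injected with α2β2γ1 subunit mRNA were recorded on days 3–5 by two-electrode voltage clamp at −80 mV, room temperature, pH 7.4 superfusion. Compound effect on GABA EC20 current computed point by point against a control GABA response; extremum expressed as % modulation of GABA EC20, n≥3 oocytes.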

Consider `COC[C@@H]1N=C(c2c(F)cccc2F)c2c(ccc(Br)c2Cl)-n2c(C)nnc21` [Example 100, (4R)-8-bromo-7-chloro-6-(2,6-difluorophenyl)-4-(methoxymethyl)-1-methyl-4H-[1,2,4]triazolo[4,3-a][1,4]benzodiazepine], for which, in assay [1], the inhibitory constant (Ki) (usually a dissociation constant, usually derived from enzyme kinetics or from competition with a known ligand) was found to be 19.8 nM; the “γ2/γ1 Selectivity Ratio” value is 14.6; the LogSel was found to be 1.16. This compound also displayed a Ki in assay [2] of 34 nM. In addition, in assay [3], the “Efficacy (GABA)%” value was 64% and the “Fold increase h-GABA-A α2β2γ1 oocyte @ 30-fold Ki” value was 1.64.

Regarding `Cc1nnc2n1-c1ccc(Br)c(Cl)c1C(c1c(F)cccc1F)=N[C@H]2CO` [Example 101, [(4R)-8-bromo-7-chloro-6-(2,6-difluorophenyl)-1-methyl-4H-[1,2,4]triazolo[4,3-a][1,4]benzodiazepin-4-yl]methanol], in assay [1], the Ki is 26.4 nM, the “γ2/γ1 Selectivity Ratio” value is on record as 18.8 and the LogSel came out at 1.27. In assay [2], this compound registered an inhibition constant (Ki) of 14.3 nM. Further, in assay [3], the “Efficacy (GABA)%” value was 119% and the “Fold increase h-GABA-A α2β2γ1 oocyte @ 30-fold Ki” value came out at 2.19.

With `Cc1nnc2n1-c1ccc(I)c(Cl)c1C(c1c(F)cccc1F)=N[C@H]2C` [Example 102, (4S)-7-chloro-6-(2,6-difluorophenyl)-8-iodo-1,4-dimethyl-4H-[1,2,4]triazolo[4,3-a][1,4]benzodiazepine], in assay [1], the Ki was found to be 8 nM, the “γ2/γ1 Selectivity Ratio” value is recorded as 34.7 and the LogSel is 1.54. The affinity in assay [2] corresponds to a Ki of 6.6 nM. In addition, in assay [3], the “Efficacy (GABA)%” value was found to be 89% and the “Fold increase h-GABA-A α2β2γ1 oocyte @ 30-fold Ki” value was 1.89.

For `C[C@@H]1N=C(c2c(F)cccc2F)c2c(ccc(C(F)(F)F)c2Cl)-n2c(CO)nnc21` [Example 103, [(4S)-7-chloro-6-(2,6-difluorophenyl)-4-methyl-8-(trifluoromethyl)-4H-[1,2,4]triazolo[4,3-a][1,4]benzodiazepin-1-yl]methanol], in assay [1], the inhibitory constant (Ki) stood at 50.4 nM, the “γ2/γ1 Selectivity Ratio” value is 67.0 and the LogSel was 1.83. Besides, the affinity in assay [2] corresponds to a Ki of 49.8 nM. Moreover, in assay [3], the “Efficacy (GABA)%” value is given as 123% and the “Fold increase h-GABA-A α2β2γ1 oocyte @ 30-fold Ki” value was found to be 2.23.
